We go through 40 molecules from patent US9718782B2, “TrkA kinase inhibitors, compositions and methods thereof” (MERCK SHARP & DOHME CORP, priority 2013, dated 2017).

For the assay, the target named is T1, TrkA receptor (Homo sapiens, UniProt P04629).
T1 construct: host or cells: U2OS (PathHunter, 'TrkA p75' cells)
T1 sequence (P04629 33-796): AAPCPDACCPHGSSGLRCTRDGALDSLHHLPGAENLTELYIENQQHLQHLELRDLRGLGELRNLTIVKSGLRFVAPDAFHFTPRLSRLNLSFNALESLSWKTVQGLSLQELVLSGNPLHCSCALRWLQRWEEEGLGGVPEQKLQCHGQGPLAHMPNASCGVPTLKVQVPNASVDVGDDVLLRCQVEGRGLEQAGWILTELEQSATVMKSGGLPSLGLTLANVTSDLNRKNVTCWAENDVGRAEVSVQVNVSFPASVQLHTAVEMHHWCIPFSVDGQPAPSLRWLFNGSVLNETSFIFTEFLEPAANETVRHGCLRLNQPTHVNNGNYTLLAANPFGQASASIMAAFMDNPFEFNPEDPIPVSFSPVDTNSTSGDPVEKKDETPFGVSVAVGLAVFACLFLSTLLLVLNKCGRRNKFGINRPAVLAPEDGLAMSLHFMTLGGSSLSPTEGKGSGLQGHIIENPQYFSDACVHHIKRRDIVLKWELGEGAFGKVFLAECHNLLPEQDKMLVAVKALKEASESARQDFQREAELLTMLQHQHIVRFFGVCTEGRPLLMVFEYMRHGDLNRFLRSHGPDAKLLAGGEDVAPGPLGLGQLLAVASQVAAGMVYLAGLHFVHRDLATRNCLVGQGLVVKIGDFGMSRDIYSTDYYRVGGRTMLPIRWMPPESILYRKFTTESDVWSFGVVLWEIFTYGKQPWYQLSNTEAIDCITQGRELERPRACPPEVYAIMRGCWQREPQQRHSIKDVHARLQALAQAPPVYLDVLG
As to the kind of experiment: DiscoverX PathHunter TrkA functional assay (NGF-stimulated U2OS cells). The format is cell-based. To be noted: U2OS cells expressing TrkA-Prolink fusion and Shc1-EA; compound 1 hour, then EC80 NGF 3 hours; luminescence. Here is the method:
TrkA functional activity was measured using a DiscoverX PathHunter assay. In this assay, U2OS cells are express TrkA receptor as a fusion with the weakly complementing fragment of B-galactosidase, which DiscoverX calls “Prolink (PK)”; additionally, Shcl is fused with a larger fragment, which is called “Enzyme Acceptor (EA)”. Activation of the TrkA receptor, upon NGF addition, results in the kinase domain being phosphorylated, resulting in subsequent recruitment of Shcl-EA protein. That recruitment results in an active B-galactosidase enzyme that is detected by addition of a chemiluminescent substrate.
All reagents were purchased from DiscoverX, except for the receptor agonists (NGF, BDNF, NT3) which were purchased from Peprotech. Cells were expanded and frozen into cryovials (TrkA p75 @passage 13, 1.5×10^7 cells/vial; TrkC p75 @passage 11, 1.5×10^7 cells/vial in InVitrogen Recovery Cell Freezing media), and stored in the vapor phase of liquid nitrogen, and thawed immediately before use. Thawed cells were added to a 384-well plate (BD Falcon 384-well white/clear, TC surface 120 uL assay plates (353963), 20 uL of 0.375e6 cells/mL=>7500 cells/well), and allowed to incubate overnight. Compound (10 mM starting dose: 202.5 nL compound yielding 0.81% DMSO final in total assay volume and starting doses 81 uM) was added the following morning and allowed to incubate on cells for 1 hour. Then, 5 uL EC80 of agonist (NGF for TrkA; BDNF for TrkB; NT3 for TrkC) was added and allowed to incubate for 3 hours at room temperature. DiscoverX PathHunter detection reagent is added (12 uL to plate and components diluted in parts as per kit instructions) and the plate is further incubated for 1 hour in the dark. The plate is read via luminescence on the Perkin Elmer Envision.
Take `CC(C)Cc1cc(NC(=O)NC2c3ccccc3-c3ccccc32)n(-c2ccccc2)n1` [Compound 17, 1-(9H-fluoren-9-yl)-3-[3-(2-methylpropyl)-1-phenyl-1H-pyrazol-5-yl]urea]: the IC50 turned out to be 200 nM.
Take `O=C(Nc1ncnn1-c1ccccc1)NC1c2ccccc2-c2ccccc21` [Compound 67, 1-(9H-fluoren-9-yl)-3-(1-phenyl-1H-1,2,4-triazol-5-yl)urea]: the midpoint of inhibition, the IC50, lay at 4800 nM.
The same measure for `Cn1ccnc1-c1cncc(NC(=O)NC2c3ccccc3-c3ccccc32)c1` [Compound 82, 1-(9H-fluoren-9-yl)-3-[5-(1-methyl-1H-imidazol-2-yl)pyridin-3-yl]urea]: 260 nM; for `Cc1ncc(NC(=O)NC2c3ccccc3-c3ccccc32)c(-c2ccc(F)cc2)n1` [Compound 28, 1-(9H-fluoren-9-yl)-3-[4-(4-fluorophenyl)-2-methylpyrimidin-5-yl]urea]: 150 nM.
The same measure for `Cn1nnnc1-c1cccc(NC(=O)NC2c3ccccc3-c3ccccc32)c1` [Compound 64, 1-(9H-fluoren-9-yl)-3-[3-(l-methyl-1H-tetrazol-5-yl)phenyl]urea]: 330 nM; for `CN(C)C(=O)c1cccc(NC(=O)NC2c3ccccc3-c3ccccc32)c1` [Compound 61, 3-[(9H-fluoren-9-ylcarbamoyl)amino]-N,N-dimethylbenzamide]: 670 nM; for `O=C(Nc1cccc(-c2nnco2)c1)NC1c2ccccc2-c2ccccc21` [Compound 49, 1-(9H-fluoren-9-yl)-3-[3-(1,3,4-oxadiazol-2-yl)phenyl]urea]: 2800 nM.
The result for `O=C(Nc1cncnc1-c1ccccc1)NC1c2ccccc2-c2ccccc21` [Compound 30, 1-(9H-fluoren-9-yl)-3-(4-phenylpyrimidin-5-yl)urea] reads 170 nM; that for `O=C(Nc1cccnc1)NC1c2ccccc2-c2ccccc21` [Compound 66, 1-(9H-fluoren-9-yl)-3-pyridin-3-ylurea], 3500 nM; that for `O=C(Nc1cccnc1C1CCCCC1)NC1c2ccccc2-c2ccccc21` [Compound 40, 1-(2-cyclohexylpyridin-3-yl)-3-(9H-fluoren-9-yl)urea], 200 nM.
For the molecule `O=C(Nc1cnccc1-c1ccccc1)NC1c2ccccc2-c2ccccc21` [Compound 12, 1-(9H-fluoren-9-yl)-3-(4-phenylpyridin-3-yl)urea], the IC50 came out at 280 nM.
In turn, `Cc1ncc(NC(=O)NC2c3ccccc3-c3ccccc32)c(-c2ccccc2)n1` [Compound 4, 1-(9H-fluoren-9-yl)-3-(2-methyl-4-phenylpyrimidin-5-yl)urea] had an IC50 of 82 nM.
The result for `Cc1cc(-c2ccc(F)cc2)c(NC(=O)NC2c3ccccc3-c3ccccc32)cn1` [Compound 29, 1-(9H-fluoren-9-yl)-3-[4-(4-fluorophenyl)-6-methylpyridin-3-yl]urea] reads 480 nM; that for `O=C(Nc1cccnc1-c1ccc(F)cc1)NC1c2ccccc2-c2ccccc21` [Compound 52, 1-(9H-fluoren-9-yl)-3-[2-(4-fluorophenyl)pyridin-3-yl]urea], 100 nM; that for `Cc1cc(NC(=O)NC2c3ccccc3-c3ccccc32)n(-c2ccc(F)cc2)n1` [Compound 41, 1-(9H-fluoren-9-yl)-3-[1-(4-fluorophenyl)-3-methyl-1H-pyrazol-5-yl]urea], 83 nM.
The same measure for `Cc1nnc(-c2cccc(NC(=O)NC3c4ccccc4-c4ccccc43)c2)n1C` [Compound 86, 1-[3-(4,5-dimethyl-4H-1,2,4-triazol-3-yl)phenyl]-3-(9H-fluoren-9-yl)urea]: 250 nM.
In turn, `CCc1nnc(-c2cccc(NC(=O)NC3c4ccccc4-c4ccccc43)c2)o1` [Compound 60, 1-[3-(5-ethyl-1,3,4-oxadiazol-2-yl)phenyl]-3-(9H-fluoren-9-yl)urea] yielded an IC50 of 560 nM.
The same measure for `Cn1nccc1-c1cncc(NC(=O)NC2c3ccccc3-c3ccccc32)c1` [Compound 73, 1-(9H-fluoren-9-yl)-3-[5-(1-methyl-1H-pyrazol-5-yl)pyridin-3-yl]urea]: 2800 nM; for `Cc1ccccc1-c1ncccc1NC(=O)NC1c2ccccc2-c2ccccc21` [Compound 77, 1-(9H-fluoren-9-yl)-3-[2-(2-methylphenyl)pyridin-3-yl]urea]: 1200 nM; for `Cc1nc(-c2ccccc2)c(NC(=O)NC2c3ccccc3-c3ccccc32)o1` [Compound 81, 1-(9H-fluoren-9-yl)-3-(2-methyl-4-phenyl-1,3-oxazol-5-yl)urea]: 3900 nM.
The result for `O=C(Nc1cc(F)cnc1-c1ccccc1)NC1c2ccccc2-c2ccccc21` [Compound 84, 1-(9H-fluoren-9-yl)-3-(5-fluoro-2-phenylpyridin-3-yl)urea] reads 47 nM; that for `O=C(Nc1cccc(-c2nnc3n2CCC3)c1)NC1c2ccccc2-c2ccccc21` [Compound 43, 1-[3-(6,7-dihydro-5H-pyrrolo[2,1-c] [1,2,4]triazol-3-yl)phenyl]-3-(9H-fluoren-9-yl)urea], 130 nM; that for `Cc1cnc(-c2ccccc2)c(NC(=O)NC2c3ccccc3-c3ccccc32)c1` [Compound 71, 1-(9H-fluoren-9-yl)-3-(5-methyl-2-phenylpyridin-3-yl)urea], 120 nM.
The same measure for `Cc1nnc(-c2cccc(NC(=O)NC3c4ccccc4-c4ccccc43)c2)[nH]1` [Compound 37, 1-(9H-fluoren-9-yl)-3-[3-(5-methyl-4H-1,2,4-triazol-3-yl)phenyl]urea]: 2300 nM; for `O=C(Nc1cccnc1-c1ccncc1)NC1c2ccccc2-c2ccccc21` [Compound 50, 1-(2,4′-bipyridin-3-yl)-3-(9H-fluoren-9-yl)urea]: 880 nM; for `Cc1nnc(-c2cccc(NC(=O)NC3c4ccccc4-c4ccccc43)c2)s1` [Compound 47, 1-(9H-fluoren-9-yl)-3-[3-(5-methyl-1,3,4-thiadiazol-2-yl)phenyl]urea]: 970 nM.
Molecule `Cn1nc(-c2ccccc2)cc1NC(=O)NC1c2ccccc2-c2ccccc21` [Compound 56, 1-(9H-fluoren-9-yl)-3-(1-methyl-3-phenyl-1H-pyrazol-5-yl)urea] returned an IC50 of 410 nM.
The same measure for `CC(C)(C)c1cc(NC(=O)NC2c3ccccc3-c3ccccc32)n(-c2ccc(F)cc2)n1` [Compound 20, 1-[3-tert-butyl-1-(4-fluorophenyl)-1H-pyrazol-5-yl]-3-(9H-fluoren-9-yl)urea]: 190 nM.
The result for `O=C(Nc1ccccc1N1CCOCC1)NC1c2ccccc2-c2ccccc21` [Compound 35, 1-(9H-fluoren-9-yl)-3-(2-morpholin-4-ylphenyl)urea] reads 4000 nM; that for `Cc1onc(-c2ccccc2)c1NC(=O)NC1c2ccccc2-c2ccccc21` [Compound 8, 1-(9H-fluoren-9-yl)-3-(5-methyl-3-phenylisoxazol-4-yl)urea], 190 nM; that for `O=C(Nc1cccnc1-c1ccccc1)NC1c2ccccc2-c2ccccc21` [Compound 11, 1-(9H-fluoren-9-yl)-3-(2-phenylpyridin-3-yl)urea], 27 nM.
Molecule `O=C(Nc1cccnc1-c1ccnc(F)c1)NC1c2ccccc2-c2ccccc21` [Compound 53, 1-(9H-fluoren-9-yl)-3-(2′-fluoro-2,4′-bipyridin-3-yl)urea] showed an IC50 of 540 nM.
The same measure for `Cn1ncc(-c2ccccc2)c1NC(=O)NC1c2ccccc2-c2ccccc21` [Compound 9, 1-(9H-fluoren-9-yl)-3-(1-methyl-4-phenyl-1H-pyrazol-5-yl)urea]: 530 nM; for `Cc1nn(C)c(NC(=O)NC2c3ccccc3-c3ccccc32)c1-c1ccccc1` [Compound 10, 1-(1,3-dimethyl-4-phenyl-1H-pyrazol-5-yl)-3-(9H-fluoren-9-yl)urea]: 210 nM.
The same measure for `O=C(Nc1c(-c2ccncc2)nc2ccccn12)NC1c2ccccc2-c2ccccc21` [Compound 69, 1-(9H-fluoren-9-yl)-3-(2-pyridin-4-ylimidazo[1,2-a]pyridin-3-yl)urea]: 770 nM; for `O=C(Nc1cc(C2CC2)nn1-c1ccccc1)NC1c2ccccc2-c2ccccc21` [Compound 19, 1-(3-cyclopropyl-1-phenyl-1H-pyrazol-5-yl)-3-(9H-fluoren-9-yl)urea]: 69 nM; for `O=C(Nc1ccnn1-c1ccccc1)NC1c2ccccc2-c2ccccc21` [Compound 14, 1-(9H-fluoren-9-yl)-3-(1-phenyl-1H-pyrazol-5-yl)urea]: 120 nM.
The result for `Cc1nc(NC(=O)NC2c3ccccc3-c3ccccc32)n(-c2ccccc2)n1` [Compound 78, 1-(9H-fluoren-9-yl)-3-(3-methyl-1-phenyl-1H-1,2,4-triazol-5-yl)urea] reads 520 nM; that for `CNc1ncccc1NC(=O)NC1c2ccccc2-c2ccccc21` [Compound 26, 1-(9H-fluoren-9-yl)-3-[2-(methylamino)pyridin-3-yl]urea], 520 nM; that for `Cc1cc(NC(=O)NC2c3ccccc3-c3ccccc32)n(-c2ccccn2)n1` [Compound 39, 1-(9H-fluoren-9-yl)-3-(3-methyl-1-pyridin-2-yl-1H-pyrazol-5-yl)urea], 3000 nM.

Broadly, the IC50 is the concentration that gives 50% inhibition.
